Source: ChEMBL document CHEMBL1140049, “Bioisosteric replacement of the pyrazole 5-aryl moiety of N-(piperidin-1-yl)-5-(4-chlorophenyl)-1-(2,4-dichlorophenyl)-4-methyl-1H-pyrazole-3-carboxamide (SR141716A). A novel series of alkynylthiophenes as potent and selective cannabinoid-1 receptor antagonists” (J Med Chem, 2008)
Calls of active or inactive are those of the source. The rule behind the calls is not given here.

Legend:
[1] = molecular target: T1, Cannabinoid receptor 1 (Homo sapiens, UniProt P21554); test: biochemical; assay type: cell-based, HEK293
Description: Displacement of [3H]CP-55940 from human CB1 receptor expressed in HEK293 cells

[2] = molecular target: Cannabinoid receptor 2 (Homo sapiens, UniProt P34972); test: Displacement of [3H]CP-55940 from human CB2 receptor expressed in HEK293 cells; assay type: cell-based
[3] = system: HEK293; test: Selectivity ratio of IC50 for human CB2 receptor to human CB1 receptor expressed in HEK293 cells; assay type: cell-based
[4] = molecular target: T1, Cannabinoid receptor 1; test: Antagonist activity at human CB1 receptor expressed in HEK293 cells assessed as inhibition of Eu-GTP binding; assay type: cell-based
[5] = molecular target: T1, Cannabinoid receptor 1; test: Agonist activity at human CB1 receptor expressed in HEK293 cells assessed as increase in [35S]gammaGTP binding relative to control; assay type: cell-based
[6] = molecular target: T1, Cannabinoid receptor 1; test: Displacement of [3H]SR141716A from human CB1 receptor expressed in HEK293 cells; assay type: cell-based
[7] = molecular target: T1, Cannabinoid receptor 1; test: Antagonist activity at human CB1 receptor expressed in HEK293 cells assessed as effect on [35S]gammaGTP binding relative to control; assay type: cell-based

Chain of Cannabinoid receptor 2 (P34972 whole entry): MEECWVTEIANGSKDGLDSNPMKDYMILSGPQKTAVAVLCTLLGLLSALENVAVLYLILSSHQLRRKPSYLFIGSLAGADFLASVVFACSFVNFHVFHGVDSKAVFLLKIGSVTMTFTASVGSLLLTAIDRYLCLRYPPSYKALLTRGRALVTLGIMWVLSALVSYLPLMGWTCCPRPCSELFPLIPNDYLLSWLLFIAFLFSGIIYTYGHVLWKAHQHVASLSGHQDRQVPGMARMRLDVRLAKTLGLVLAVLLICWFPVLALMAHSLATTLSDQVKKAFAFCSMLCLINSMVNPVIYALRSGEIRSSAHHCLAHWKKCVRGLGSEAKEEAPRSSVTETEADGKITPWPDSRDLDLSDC
T1 sequence (P21554 whole entry): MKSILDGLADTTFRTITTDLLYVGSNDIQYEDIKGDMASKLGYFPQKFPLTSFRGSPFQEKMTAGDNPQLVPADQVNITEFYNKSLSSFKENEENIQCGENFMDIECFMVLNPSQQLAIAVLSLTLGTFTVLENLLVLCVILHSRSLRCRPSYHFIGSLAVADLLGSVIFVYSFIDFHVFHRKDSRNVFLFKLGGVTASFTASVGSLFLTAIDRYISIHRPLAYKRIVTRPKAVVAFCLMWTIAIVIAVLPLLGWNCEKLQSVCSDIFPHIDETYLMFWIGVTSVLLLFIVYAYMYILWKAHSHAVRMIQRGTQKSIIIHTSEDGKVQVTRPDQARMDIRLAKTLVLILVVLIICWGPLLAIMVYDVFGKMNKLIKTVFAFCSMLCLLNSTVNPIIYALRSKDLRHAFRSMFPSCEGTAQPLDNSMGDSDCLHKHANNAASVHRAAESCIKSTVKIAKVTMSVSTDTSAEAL

SMILES: CCCCCc1ccc(-c2c(C)c(C(=O)NN3CC4CCCC4C3)nn2-c2ccc(Cl)cc2Cl)s1 (configuration not stated)
- IC50 [1]: 20.6 nM
- IC50 [2]: 3660 nM
- Ratio IC50 [3]: 178
- EC50 [4]: 48 nM

SMILES: CCCCC#Cc1ccc(-c2c(C)c(C(=O)NN3CCCCC3)nn2-c2ccc(Cl)cc2Cl)s1
- IC50 [1]: 1.4 nM
- IC50 [2]: 311 nM
- Ratio IC50 [3]: 222
- Activity [5]: Active
- EC50 [4]: 7.9 nM

SMILES: Cc1c(C(=O)NN2CCCCC2)nn(-c2ccc(Cl)cc2Cl)c1-c1ccc(C#CC2CCCC2)s1
- IC50 [1]: 7.1 nM
- IC50 [2]: 1810 nM
- Ratio IC50 [3]: 255
- Activity [5]: Active
- EC50 [4]: 24.5 nM

SMILES: CCC/C=C/c1ccc(-c2c(C)c(C(=O)NN3CCCCC3)nn2-c2ccc(Cl)cc2Cl)s1
- IC50 [1]: 21.6 nM
- IC50 [2]: 3840 nM
- Ratio IC50 [3]: 178
- EC50 [4]: 146 nM

SMILES: CCCC#Cc1ccc(-c2c(CC)c(C(=O)NN3CCCCCC3)nn2-c2ccc(Cl)cc2Cl)s1
- IC50 [1]: 8.9 nM
- IC50 [2]: 310 nM
- IC50 [6]: 1.2 nM
- Ratio IC50 [3]: 34
- EC50 [4]: 16.5 nM

SMILES: CCCCC#Cc1ccc(-c2c(C)c(C(=O)NC3CCCCC3)nn2-c2ccc(Cl)cc2Cl)s1
- IC50 [1]: 2.1 nM
- IC50 [2]: 278 nM
- Ratio IC50 [3]: 133
- Activity [5]: Active
- EC50 [4]: 43.9 nM

SMILES: CCc1c(C(=O)NN2CCCCC2)nn(-c2ccc(Cl)cc2Cl)c1-c1ccc(C#CCC(C)C)s1
- IC50 [1]: 5.1 nM
- IC50 [2]: 1210 nM
- Ratio IC50 [3]: 236
- EC50 [4]: 23 nM

SMILES: CCCCC#Cc1ccc(-c2c(C)c(C(=O)NCCCCCC)nn2-c2ccc(Cl)cc2Cl)s1
- IC50 [1]: 2.6 nM
- IC50 [2]: 261 nM
- Ratio IC50 [3]: 100
- Activity [5]: Active
- EC50 [4]: 74 nM

SMILES: Cc1c(C(=O)NN2CCCCCC2)nn(-c2ccc(Cl)cc2Cl)c1-c1ccc(Cl)s1
- IC50 [1]: 159 nM
- IC50 [2]: 2160 nM
- Ratio IC50 [3]: 14
- EC50 [4]: 134 nM

SMILES: COCC#Cc1ccc(-c2c(C)c(C(=O)NN3CCCCC3)nn2-c2ccc(Cl)cc2Cl)s1
- IC50 [1]: 65.3 nM
- IC50 [2]: 2740 nM
- Ratio IC50 [3]: 42
- EC50 [4]: 143 nM

SMILES: Cc1c(C(=O)NN2CCCCC2)nn(-c2ccc(Cl)cc2Cl)c1-c1ccc(Cl)s1
- IC50 [1]: 50.2 nM
- IC50 [2]: 1290 nM
- Ratio IC50 [3]: 26
- EC50 [4]: 147 nM

SMILES: CCC#Cc1ccc(-c2c(C)c(C(=O)NN3CCCCCC3)nn2-c2ccc(Cl)cc2Cl)s1
- IC50 [1]: 24.2 nM
- IC50 [2]: 1060 nM
- Activity [7]: Active
- Ratio IC50 [3]: 44
- EC50 [4]: 36.4 nM

SMILES: Cc1c(C(=O)NN2CCCCC2)nn(-c2ccc(Cl)cc2Cl)c1-c1ccc(C#CCCc2ccccc2)s1
- IC50 [1]: 6.1 nM
- IC50 [2]: 1750 nM
- Ratio IC50 [3]: 285
- Activity [5]: Active
- EC50 [4]: 20.4 nM

SMILES: Cc1c(C(=O)NN2CC3CCCC3C2)nn(-c2ccc(Cl)cc2Cl)c1-c1ccc(C#CC2CC2)s1 (configuration not stated)
- IC50 [1]: 21 nM
- IC50 [2]: 5720 nM
- Activity [7]: Active
- Ratio IC50 [3]: 272
- EC50 [4]: 105 nM

SMILES: Cc1c(C(=O)NN2CC3CCCC3C2)nn(-c2ccc(Cl)cc2Cl)c1-c1ccc(C#CC2CCCCC2)s1 (configuration not stated)
- IC50 [1]: 7.8 nM
- IC50 [2]: 1730 nM
- Ratio IC50 [3]: 221
- Activity [5]: Active
- EC50 [4]: 294 nM

SMILES: Cc1c(C(=O)NN2CCCCC2)nn(-c2ccc(Cl)cc2Cl)c1-c1ccc(C#CCOC(C)C)s1
- IC50 [1]: 23.2 nM
- IC50 [2]: 1760 nM
- Ratio IC50 [3]: 76
- Activity [5]: Active
- EC50 [4]: 57.4 nM

SMILES: Cc1c(C(=O)NN2CCCCC2)nn(-c2ccc(Cl)cc2Cl)c1-c1ccc(C#CC2CC2)s1
- IC50 [1]: 60.4 nM
- IC50 [2]: 4230 nM
- Activity [7]: Active
- Ratio IC50 [3]: 70
- EC50 [4]: 72.9 nM

SMILES: Cc1c(C(=O)NN2CC3CCCC3C2)nn(-c2ccc(Cl)cc2Cl)c1-c1ccc(C#CC(C)(C)C)s1 (configuration not stated)
- IC50 [1]: 21.7 nM
- IC50 [2]: 1160 nM
- Ratio IC50 [3]: 53
- Activity [5]: Active
- EC50 [4]: 158 nM

SMILES: CCCC#Cc1ccc(-c2c(C)c(C(=O)NN3CC4CCCC4C3)nn2-c2ccc(Cl)cc2Cl)s1 (configuration not stated)
- IC50 [1]: 7.9 nM
- IC50 [2]: 785 nM
- Activity [7]: Active
- Ratio IC50 [3]: 99
- EC50 [4]: 19.2 nM

SMILES: CCCCC#Cc1ccc(-c2c(C)c(C(=O)NN3CCCCCC3)nn2-c2ccc(Cl)cc2Cl)s1
- IC50 [1]: 1.7 nM
- IC50 [2]: 564 nM
- Ratio IC50 [3]: 332
- Activity [5]: Active
- EC50 [4]: 4.8 nM

SMILES: Cc1c(C(=O)NN2CCCCC2)nn(-c2ccc(Cl)cc2Cl)c1-c1ccc(C#CCN(C)C)s1
- IC50 [1]: 124 nM
- IC50 [2]: 1270 nM
- Ratio IC50 [3]: 10
- EC50 [4]: 349 nM

SMILES: Cc1c(C(=O)NN2CC3CCCC3C2)nn(-c2ccc(Cl)cc2Cl)c1-c1ccc(C#CC2CCCC2)s1 (configuration not stated)
- IC50 [1]: 10.5 nM
- IC50 [2]: 902 nM
- Ratio IC50 [3]: 86
- Activity [5]: Active
- EC50 [4]: 99.3 nM

SMILES: Cc1c(C(=O)NN2CCCCC2)nn(-c2ccc(Cl)cc2Cl)c1-c1ccc(C#CC(C)(C)C)s1
- IC50 [1]: 32.7 nM
- IC50 [2]: 1900 nM
- Ratio IC50 [3]: 59
- Activity [5]: Active
- EC50 [4]: 28.9 nM

SMILES: CCC/C=C/c1ccc(-c2c(C)c(C(=O)NN3CC4CCCC4C3)nn2-c2ccc(Cl)cc2Cl)s1 (configuration not stated)
- IC50 [1]: 27.5 nM
- IC50 [2]: 5410 nM
- Ratio IC50 [3]: 197
- EC50 [4]: 71.4 nM

SMILES: Cc1c(C(=O)NN2CCCCCC2)nn(-c2ccc(Cl)cc2Cl)c1-c1ccc(Br)s1
- IC50 [1]: 40.7 nM
- IC50 [2]: 705 nM
- Ratio IC50 [3]: 17
- EC50 [4]: 64.9 nM

SMILES: CCCCC#Cc1ccc(-c2c(C)c(C(=O)NCCCC)nn2-c2ccc(Cl)cc2Cl)s1
- IC50 [1]: 3 nM
- IC50 [2]: 638 nM
- Ratio IC50 [3]: 213
- Activity [5]: Active
- EC50 [4]: 29.8 nM

SMILES: Cc1c(C(=O)NN2CCCCC2)nn(-c2ccc(Cl)cc2Cl)c1-c1ccc(Br)s1
- IC50 [1]: 35.8 nM
- IC50 [2]: 895 nM
- Ratio IC50 [3]: 25
- EC50 [4]: 68.2 nM

SMILES: CCC#Cc1ccc(-c2c(C)c(C(=O)NN3CCCCC3)nn2-c2ccc(Cl)cc2Cl)s1
- IC50 [1]: 65.4 nM
- IC50 [2]: 4330 nM
- Activity [7]: Active
- Ratio IC50 [3]: 66
- EC50 [4]: 51.4 nM

SMILES: Cc1c(C(=O)NN2CCCCC2)nn(-c2ccc(Cl)cc2Cl)c1-c1ccc(C#CC2CCCCC2)s1
- IC50 [1]: 7.3 nM
- IC50 [2]: 1580 nM
- Ratio IC50 [3]: 216
- Activity [5]: Active
- EC50 [4]: 442 nM

SMILES: CCCCC#Cc1ccc(-c2c(C)c(C(=O)NN3CC4CCCC4C3)nn2-c2ccc(Cl)cc2Cl)s1 (configuration not stated)
- IC50 [1]: 1.3 nM
- IC50 [2]: 158 nM
- Ratio IC50 [3]: 122
- Activity [5]: Active
- EC50 [4]: 5.7 nM

SMILES: CCC#Cc1ccc(-c2c(C)c(C(=O)NN3CC4CCCC4C3)nn2-c2ccc(Cl)cc2Cl)s1 (configuration not stated)
- IC50 [1]: 28.3 nM
- IC50 [2]: 921 nM
- Activity [7]: Active
- Ratio IC50 [3]: 33
- EC50 [4]: 35.5 nM

SMILES: CCOCC#Cc1ccc(-c2c(C)c(C(=O)NN3CCCCC3)nn2-c2ccc(Cl)cc2Cl)s1
- IC50 [1]: 12.7 nM
- IC50 [2]: 986 nM
- Ratio IC50 [3]: 78
- EC50 [4]: 25.5 nM

SMILES: Cc1c(C(=O)NN2CCCCC2)nn(-c2ccc(Cl)cc2Cl)c1-c1ccc(C#CCOc2ccccc2)s1
- IC50 [1]: 43 nM
- IC50 [2]: 7030 nM
- Activity [7]: Active
- Ratio IC50 [3]: 164
- EC50 [4]: 18.7 nM

SMILES: CCCCCc1ccc(-c2c(C)c(C(=O)NN3CCCCC3)nn2-c2ccc(Cl)cc2Cl)s1
- IC50 [1]: 57.9 nM
- IC50 [2]: 6350 nM
- Ratio IC50 [3]: 109
- EC50 [4]: 75.9 nM

SMILES: Cc1c(C(=O)NN2CCCCC2)nn(-c2ccc(Cl)cc2Cl)c1-c1ccc(C#CCNC(C)C)s1
- IC50 [1]: 82.4 nM
- IC50 [2]: 7180 nM
- Ratio IC50 [3]: 87
- EC50 [4]: 390 nM
